Experimental data from paper PMC7400437, “Synthesis and Evaluation of the Antibacterial Activities of 13-Substituted Berberine Derivatives” (Antibiotics, 2020).
Read-outs that look alike come from different tables or passages of the source.

Key:
[1] = test system: S. aureus; assay: MIC, antimicrobial activity assay; assay type: cell-based, Staphylococcus aureus (ATCC 6538P); details: Staphylococcus aureus
[2] = test system: B. subtilis; assay: MIC, antimicrobial activity assay; assay type: cell-based, Bacillus subtilis (ATCC 6633); details: Bacillus subtilis
[3] = test system: E. coli; assay: MIC, antimicrobial activity assay; assay type: cell-based, Escherichia coli (ATCC 8739); details: Escherichia coli
[4] = test system: P. aeruginosa; assay: MIC, antimicrobial activity assay; assay type: cell-based, Pseudomonas aeruginosa (ATCC 9027); details: Pseudomonas aeruginosa
[5] = test system: M. smegmatis; assay: microbe, parasite or virus in culture; assay type: cell-based, Mycobacterium smegmatis (mc2155, ATCC 700084); details: Mycolicibacterium smegmatis, 72 h, read-out: Minimal Inhibitory Concentration (MIC) M. smegmatis
[6] = test system: B. cereus; assay: MIC, antimicrobial activity assay; assay type: cell-based; details: Bacillus cereus; Table 4, Gram-positive
[7] = test system: B. subtilis (Nisin-resistant); assay: MIC, antimicrobial activity assay; assay type: cell-based, nisin-resistant B. subtilis (DSMZ 347); details: Bacillus subtilis, read-out: MIC B. subtilis (Nisin-resistant)
[8] = test system: C. difficile; assay: MIC, antimicrobial activity assay; assay type: cell-based, Clostridium difficile (DSM 1296); details: Clostridioides difficile; Table 4, Gram-positive; anaerobic
[9] = test system: E. faecalis (Vancomycin-resistant); assay: MIC, antimicrobial activity assay; assay type: cell-based, vancomycin-resistant Enterococcus faecalis (DSMZ 13591); details: Enterococcus faecalis, read-out: MIC E. faecalis (Vancomycin-resistant)
[10] = test system: L. lactis; assay: MIC, antimicrobial activity assay; assay type: cell-based, Lactococcus lactis (DSM 20481); details: Lactococcus lactis; Table 4, Gram-positive
[11] = test system: S. pyogenes; assay: MIC, antimicrobial activity assay; assay type: cell-based, Streptococcus pyogenes (DSM 20565); details: Streptococcus pyogenes; Table 4, Gram-positive; anaerobic
[12] = test system: C. rodentium; assay: MIC, antimicrobial activity assay; assay type: cell-based, Citrobacter rodentium (ATCC 51116); details: Citrobacter rodentium; Table 4, Gram-negative
[13] = test system: S. flexneri; assay: MIC, antimicrobial activity assay; assay type: cell-based, Shigella flexneri (ATCC 12022); details: Shigella flexneri; Table 4, Gram-negative
[14] = test system: V. alginolyticus; assay: Bacterial membrane permeabilization assay (propidium iodide); assay type: cell-based, Vibrio alginolyticus; details: for membrane permeabilization at 4-times MIC, V. alginolyticus: 4-times their MIC; for maximal membrane permeabilization, V. alginolyticus: 120 min exposure to 100 µM, CTAB 300 µM = 100%
Experimental: (§1) Membrane permeabilization by berberine derivatives was evaluated using the cell-impermeable DNA/RNA probe propidium iodide as previously explained. Logarithmic growing bacterial suspensions were prepared from overnight bacterial suspension by 1 in 10 dilution. After 3 h incubation at 37 °C, 200 rpm, bacterial suspensions were centrifuged for 5 min at 3000 rpm. Cell pellets were then resuspended in sterile PBS at about 10^9 cells/mL. Propidium iodide (Sigma Aldrich) was then added to the suspension at a final concentration of 60 µM. 100 µL of this suspension were then transferred into 96-well black plates (Dominique Dutscher) and exposed to increasing concentrations of berberine’s derivative (from 0 to 100 µM, 1:2 dilution). […] All steps of the assay were performed in aerobic condition except for H. pylori which was done in microaerobic condition generated with GasPak unit (Sigma Aldrich). Bacteria were incubated at 37 °C and the kinetics of fluorescence variations (excitation at 530 nm and emission at 590 nm) were then recorded over time using a Synergy Mx microplate reader (Biotek). Cetyl trimethylammonium bromide (CTAB) at 300 µM was used as positive control giving 100% permeabilization. Results were expressed in % of permeabilization. All experiments were done in triplicate.

[15] = test system: H. pylori; assay: as above; assay type: cell-based, Helicobacter pylori; details: for membrane permeabilization at 4-times MIC, H. pylori: 4-times their MIC; for maximal membrane permeabilization, H. pylori: 120 min exposure to 100 µM, CTAB 300 µM = 100%
Experimental: as §1

[16] = test system: B. subtilis; assay: as above; assay type: cell-based, Bacillus subtilis; details: for membrane permeabilization at 4-times MIC, B. subtilis: 4-times their MIC; for maximal membrane permeabilization, B. subtilis: 120 min exposure to 100 µM, CTAB 300 µM = 100%
Experimental: as §1

[17] = test system: DNA extracted from H. pylori; assay: DNA fragmentation assay; details: data not shown
[18] = test system: B. subtilis; assay: Macromolecule synthesis inhibition assay by fluorescent microscopy (morphological changes); details: 4 × MIC, 2 h, 37 °C; for Observed Morphology: DNA, B. subtilis: DAPI; for Known/Possible Target, B. subtilis: inferred from morphology
[19] = test system: V. alginolyticus; assay: as above; details: 4 × MIC, 2 h, 37 °C; for Observed Morphology: DNA, V. alginolyticus: DAPI; for Observed Morphology: cell membrane, V. alginolyticus: FM4-64FX; for Known/Possible Target, V. alginolyticus: inferred from morphology
[20] = Table 1 first screening, read-out: Minimal Inhibitory Concentration (MIC) S. aureus
[21] = Table 4, Gram-positive, read-out: MIC S. aureus
[22] = Table 1 first screening, read-out: Minimal Inhibitory Concentration (MIC) B. subtilis
[23] = Table 4, Gram-positive, read-out: MIC B. subtilis
[24] = Table 1 first screening, read-out: Minimal Inhibitory Concentration (MIC) E. coli
[25] = Table 4, Gram-negative, read-out: MIC E. coli
[26] = Table 1 first screening, read-out: Minimal Inhibitory Concentration (MIC) P. aeruginosa
[27] = Table 4, Gram-negative, read-out: MIC P. aeruginosa

Q: What does the source list for `COc1cc(C(=O)Cc2c3[n+](cc4c(OC)c(OC)ccc24)CCc2cc4c(cc2-3)OCO4)cc(OC)c1OC(=O)c1ccccc1` [Compound 16, 4-[2-(Berberin-13-yl)acetyl]-2,6-dimethoxyphenyl Benzoate]?
A: MIC [1, 20]: 6.25 to 12.5 µM; MIC [1, 21]: 6.25 µM; MIC [2, 22]: 25 µM; MIC [2, 23]: 25 µM; MIC [3, 24]: > 100 µM; MIC [3, 25]: > 100 µM; MIC [4, 26]: > 100 µM; MIC [4, 27]: > 100 µM; MIC [5]: 50 µM; MIC [6]: 12.5 µM; MIC [7]: 12.5 µM; MIC [8]: 100 µM; MIC [9]: 50 µM; MIC [10]: 6.25 to 12.5 µM; MIC [11]: 6.25 µM; MIC [12]: > 100 µM; MIC [13]: > 100 µM; membrane permeabilization at 4-times MIC, V. alginolyticus [14]: 20–40%; maximal membrane permeabilization, V. alginolyticus [14]: 80–100%; membrane permeabilization at 4-times MIC, H. pylori [15]: low to no membrane permeabilization; maximal membrane permeabilization, H. pylori [15]: 50–60%; membrane permeabilization at 4-times MIC, B. subtilis [16]: low to no membrane permeabilization; maximal membrane permeabilization, B. subtilis [16]: 10–15%; DNA fragmentation, H. pylori DNA [17]: failed at causing the fragmentation of DNA; Observed Morphology: cell elongation/enlargement, B. subtilis [18]: 1.5–6 times compared to control; Observed Morphology: cells connected, B. subtilis [18]: 2–4 cells connected; Observed Morphology: DNA, B. subtilis [18]: 2 morphologies of DNA: • - 2 condensed DNA in each cell • - Decondensed DNA spanning the cell; Known/Possible Target, B. subtilis [18]: Cell wall biosynthesis; Observed Morphology: cell elongation, V. alginolyticus [19]: 2–4 times compared to control; Observed Morphology: cells connected, V. alginolyticus [19]: 2–4 cells connected; Observed Morphology: DNA, V. alginolyticus [19]: Decondensed DNA spanning cell; Observed Morphology: cell membrane, V. alginolyticus [19]: Cell membrane thickening; Known/Possible Target, V. alginolyticus [19]: Cell wall biosynthesis

Q: With `COc1ccc(C(=O)/C=C/c2ccc(Cc3c4[n+](cc5c(OC)c(OC)ccc35)CCc3cc5c(cc3-4)OCO5)cc2)c(O)c1` [Compound 25, (2E)-3-{4-[(Berberin-13-yl)methyl]phenyl}-1-(2-hydroxy-4-methoxyphenyl)prop-2-en-1-one] as the molecule, how does the MIC [1, 20] read?
A: The MIC was 3.12 µM.

Q: And the MIC [1, 21]?
A: The MIC was 3.12 µM.

Q: And the MIC [2, 22]?
A: The MIC was 6.25 µM.

Q: And the MIC [2, 23]?
A: The MIC was 6.25 µM.

Q: What about the MIC [3, 24] of the same molecule?
A: Its MIC is greater than 100 µM.

Q: What about the MIC [3, 25] of the same molecule?
A: The MIC was greater than 100 µM.

Q: And the MIC [4, 26]?
A: Its MIC is greater than 100 µM.

Q: What about the MIC [4, 27] of the same molecule?
A: Its MIC is greater than 100 µM.

Q: And the MIC [5]?
A: Its MIC is 25 µM.

Q: And the MIC [6]?
A: Its MIC is 6.25 µM.

Q: What about the MIC [7] of the same molecule?
A: The MIC was 6.25 µM.

Q: And the MIC [8]?
A: The MIC was 12.5 µM.

Q: And the MIC [9]?
A: Its MIC is 12.5 µM.

Q: And the MIC [10]?
A: The MIC was 1.5 to 3.12 µM.

Q: What about the MIC [11] of the same molecule?
A: The MIC was 6.25 µM.

Q: What about the MIC [12] of the same molecule?
A: Its MIC is greater than 100 µM.

Q: What about the MIC [13] of the same molecule?
A: Its MIC is greater than 100 µM.

Q: And the “membrane permeabilization at 4-times MIC, V. alginolyticus” value [14]?
A: The value was 20–40%.

Q: And the “maximal membrane permeabilization, V. alginolyticus” value [14]?
A: Its value is 80–100%.

Q: What about the “membrane permeabilization at 4-times MIC, H. pylori” value [15] of the same molecule?
A: The value was “low to no membrane permeabilization”.

Q: What about the “maximal membrane permeabilization, H. pylori” value [15] of the same molecule?
A: The value was 50–60%.

Q: What about the “membrane permeabilization at 4-times MIC, B. subtilis” value [16] of the same molecule?
A: The value was “low to no membrane permeabilization”.

Q: What about the “maximal membrane permeabilization, B. subtilis” value [16] of the same molecule?
A: Its value is 10–15%.

Q: What about the “DNA fragmentation, H. pylori DNA” value [17] of the same molecule?
A: Its value is “failed at causing the fragmentation of DNA”.

Q: What about the “Observed Morphology: cell elongation/enlargement, B. subtilis” value [18] of the same molecule?
A: The value was 1–2.5 times compared to control.

Q: What about the “Observed Morphology: cells connected, B. subtilis” value [18] of the same molecule?
A: The value was 2–8 cells connected.

Q: And the “Observed Morphology: DNA, B. subtilis” value [18]?
A: Its value is “DNA condensed and cross the cells with dot like shape”.

Q: What about the “Observed Morphology: cell membrane, B. subtilis” value ([18]; FM4-64FX) of the same molecule?
A: Its value is “Cell membrane thickening”.

Q: What about the “Known/Possible Target, B. subtilis” value [18] of the same molecule?
A: Its value is “RNA biosynthesis”.

Q: And the “Observed Morphology: cell elongation, V. alginolyticus” value [19]?
A: Its value is 2–7 times compared to control.

Q: What about the “Observed Morphology: cells connected, V. alginolyticus” value [19] of the same molecule?
A: The value was 1–2 cells connected.

Q: What about the “Observed Morphology: DNA, V. alginolyticus” value [19] of the same molecule?
A: Its value is “Condensed DNA spanning the cell”.

Q: What about the “Observed Morphology: cell membrane, V. alginolyticus” value [19] of the same molecule?
A: Its value is “Cell membrane pigmentation”.

Q: And the “Known/Possible Target, V. alginolyticus” value [19]?
A: The value was “RNA biosynthesis”.
